One data set can be described thus: Heart rate assay. Format: in vivo. The conditions noted are these: IV dosing, 3 mg/kg, 1 hour post dosing, vehicle 2% cyclodextrin, conscious mice, FIG. 11. As to the method: Mice were dosed with compound VIII, FTY720 (intravenous, 3 mg/kg) or vehicle (2% hydroxypropyl beta-cyclodextrin) and heart rate measured at 1 hour post dosing. Heart rate was captured in unrestrained, conscious animals using the ECGenie™ system. The results are illustrated in FIG. 11.

The next data set deals with T1, human S1P1 receptor (Homo sapiens, UniProt P21453).
T1 construct: expressed in transfected cells; host or cells: HEK293T cells (crude microsomes)
The data set can be described thus: GTPγS-35 binding assay (broken cell), S1P1. Format: biochemical. The following applies: FIG. 7, compared with S1P. As to the method:
(§1) This assay illustrates agonist activation of G protein coupled receptors (GPCRs) in isolation. The assay forces expression concomitantly of a recombinant GPCR (e.g., the S1P1-5 receptor) and each of the three subunits (typically, α-2, β-1, or γ-2) of a heterotrimeric G protein in a HEK293T cell by transfecting the cell with four plasmid DNAs encoding the respective proteins. About 60 hours after transfection the cells are harvested, opened, and the nucleus discarded. The crude microsome is prepared from the remainder. Agonist (e.g., S1P) stimulation of the receptor-G protein complex on the microsomes results in the exchange of GTP for GDP on the α-subunit in a dose-dependent manner. The GTP-bound a-subunit is detected using a GTP analog (GTPγS-35), which is a radionuclide (sulfur-35) labeled phosphothioate that is not hydrolyzed to GDP. The microsomes with the adherent G proteins are collected by filtration and the bound GTPγS-35 quantified in a liquid scintillation counter. The assay yields relative potency (EC50 values) and maximum effect (efficacy, Emaxa Antagonist activity is detected as rightward shifts in the agonist dose-response curve in the presence of a fixed amount of antagonist. If the antagonist behaves competitively, the affinity of the receptor/antagonist pair (K1) can be determined. […]

A further data set addresses T2, S1P3 receptor (Homo sapiens, UniProt Q99500).
T2 construct: expressed in transfected cells; host or cells: HEK293T cells (crude microsomes)
Nature of the data set: GTPγS-35 binding assay (broken cell), S1P3. Type of data set: biochemical. The method, then: as §1

T2 sequence (Q99500 whole entry): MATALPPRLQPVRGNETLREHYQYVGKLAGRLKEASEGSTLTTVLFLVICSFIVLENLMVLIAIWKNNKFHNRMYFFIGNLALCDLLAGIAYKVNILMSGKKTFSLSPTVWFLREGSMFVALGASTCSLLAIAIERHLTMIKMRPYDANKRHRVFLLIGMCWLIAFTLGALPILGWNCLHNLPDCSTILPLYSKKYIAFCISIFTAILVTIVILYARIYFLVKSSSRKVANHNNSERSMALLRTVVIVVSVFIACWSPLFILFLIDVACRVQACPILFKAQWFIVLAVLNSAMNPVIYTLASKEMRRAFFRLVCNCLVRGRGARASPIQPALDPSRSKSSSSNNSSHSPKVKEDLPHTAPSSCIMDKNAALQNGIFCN
T2 sequence (P04899 whole entry partner): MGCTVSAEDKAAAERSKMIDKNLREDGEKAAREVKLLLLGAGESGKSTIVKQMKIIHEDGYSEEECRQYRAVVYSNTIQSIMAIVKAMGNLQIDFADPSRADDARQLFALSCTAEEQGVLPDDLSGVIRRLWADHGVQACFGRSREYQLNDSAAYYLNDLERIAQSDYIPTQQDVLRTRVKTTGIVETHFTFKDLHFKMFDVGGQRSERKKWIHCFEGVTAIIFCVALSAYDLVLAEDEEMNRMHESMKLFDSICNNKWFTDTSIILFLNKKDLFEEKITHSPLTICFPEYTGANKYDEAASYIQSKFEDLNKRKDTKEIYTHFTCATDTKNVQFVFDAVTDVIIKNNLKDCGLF
T2 sequence (P62873 whole entry partner): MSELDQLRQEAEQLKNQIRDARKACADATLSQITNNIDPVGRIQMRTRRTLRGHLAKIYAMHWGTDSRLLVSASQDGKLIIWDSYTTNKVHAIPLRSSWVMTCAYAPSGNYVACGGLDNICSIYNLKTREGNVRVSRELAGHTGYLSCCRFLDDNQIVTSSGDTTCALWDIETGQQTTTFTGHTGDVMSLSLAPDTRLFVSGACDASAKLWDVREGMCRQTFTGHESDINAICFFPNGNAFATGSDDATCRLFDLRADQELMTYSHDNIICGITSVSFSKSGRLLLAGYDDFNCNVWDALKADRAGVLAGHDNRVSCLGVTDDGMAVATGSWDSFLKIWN
T2 sequence (P59768 2-68 partner limits assumed): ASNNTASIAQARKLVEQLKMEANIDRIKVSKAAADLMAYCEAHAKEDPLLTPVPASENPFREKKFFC
T1 sequence (P21453 whole entry): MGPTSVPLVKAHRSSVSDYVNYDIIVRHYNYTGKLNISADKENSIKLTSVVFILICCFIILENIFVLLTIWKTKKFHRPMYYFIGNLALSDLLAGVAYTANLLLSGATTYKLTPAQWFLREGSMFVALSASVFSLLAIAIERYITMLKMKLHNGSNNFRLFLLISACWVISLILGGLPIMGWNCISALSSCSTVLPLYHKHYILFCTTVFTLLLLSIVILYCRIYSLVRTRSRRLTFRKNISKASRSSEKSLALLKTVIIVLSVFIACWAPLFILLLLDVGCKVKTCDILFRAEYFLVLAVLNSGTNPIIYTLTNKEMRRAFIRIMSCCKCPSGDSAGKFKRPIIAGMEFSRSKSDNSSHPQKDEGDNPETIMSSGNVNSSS
T1 sequence (P04899 whole entry partner): as the sequence (P04899 whole entry partner) above
T1 sequence (P62873 whole entry partner): as the sequence (P62873 whole entry partner) above
T1 sequence (P59768 2-68 partner limits assumed): as the sequence (P59768 2-68 partner limits assumed) above

In the case of `CCCCCCCCc1ccc2c(c1)CCC(C(N)(CO)CO)C2` (stereo not shown) [VIII, 2-Amino-2-(6-octyl-1,2,3,4-tetrahydro-naphthalen-2-yl)-propane-1,3-diol], the “effect on the heart rate of mice” value in the data set “Heart rate assay” is “no effect”.

As for `CCCCCCCCc1ccc2c(c1)CCC(C(N)(COP(=O)(O)O)COP(=O)(O)O)C2` (stereo not shown) [XXVII, Phosphoric acid mono-[2-amino-2-(6-octyl-1,2,3,4-tetrahydro-naphthalen-2-yl)-3-phosphonooxypropyl] ester], the “potency at S1P1 relative to S1P” value at human S1P1 receptor was “more potent”. Besides, the “agonist activity at the S1P3 receptor” value at S1P3 receptor (FIG. 8, XXVI and XXVII tested as mixture of phosphorylated forms of compound VIII) is listed as “low potency, partial agonists”. Besides, the “potency at S1P3 relative to S1P” value on S1P3 receptor (compared with S1P) is listed as “less potent”.

(Values after patent US8173710B2, “Bicyclic sphingosine 1-phosphate analogs” (University of Virginia Patent Foundation, priority 2006, dated 2012).)
